This is an account of results in patent US9340532B2, “Methods and compositions for inhibiting CNKSR1” (PHUSIS THERAPEUTICS, INC., priority 2012, dated 2016).

Data set [1] concerns the target T1, membrane colocalisation of CNKSR1 and mutant-KRas (Homo sapiens, UniProt Q969H4).
T1 construct: fluorescent protein (GFP or mRFP); expressed in transfected cells; host or cells: HEK293T
T1 sequence (Q969H4 1-720): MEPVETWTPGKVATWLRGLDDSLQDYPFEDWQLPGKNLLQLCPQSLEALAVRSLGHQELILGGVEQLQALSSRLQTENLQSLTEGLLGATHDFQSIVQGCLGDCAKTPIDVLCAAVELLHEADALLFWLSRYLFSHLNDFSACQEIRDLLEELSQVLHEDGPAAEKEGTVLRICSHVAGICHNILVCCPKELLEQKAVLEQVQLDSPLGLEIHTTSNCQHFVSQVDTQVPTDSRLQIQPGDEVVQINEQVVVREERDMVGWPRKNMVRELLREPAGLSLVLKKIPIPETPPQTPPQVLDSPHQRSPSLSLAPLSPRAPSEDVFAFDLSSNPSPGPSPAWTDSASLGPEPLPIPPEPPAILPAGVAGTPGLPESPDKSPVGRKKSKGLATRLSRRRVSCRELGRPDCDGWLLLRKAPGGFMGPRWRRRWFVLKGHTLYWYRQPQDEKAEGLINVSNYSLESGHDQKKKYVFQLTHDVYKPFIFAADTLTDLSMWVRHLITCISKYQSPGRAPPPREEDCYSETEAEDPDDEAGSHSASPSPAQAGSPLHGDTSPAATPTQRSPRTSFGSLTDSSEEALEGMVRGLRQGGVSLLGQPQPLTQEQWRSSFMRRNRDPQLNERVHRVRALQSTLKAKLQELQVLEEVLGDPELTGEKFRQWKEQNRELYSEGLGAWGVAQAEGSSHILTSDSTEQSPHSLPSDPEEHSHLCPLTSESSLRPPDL
Put plainly: Confocal imaging of CNKSR1 / mutant KRas colocalisation. The format is cell-based. The following applies: FIG. 12. The method, then: HEK293T cells were co-transfected with CNK and either wild type or G12D mutant KRAS. Twenty-four hours post-transfection, cells were seeded on glass coverslips and allowed to grow a further 24 h and then serum deprived overnight. Cells were fixed with 4% (w/v) paraformaldehyde pH 8.0 for 20 min at room temperature. Following 6-7 washes with PBS (pH 8.0) the coverslip was mounted onto a slide with mounting medium (0.1% p-phenylenediamine/75% glycerol in PBS at pH 7.5-8.0). Confocal laser scanning microscopy was performed with a Leica SP5 confocal microscope system with 63× oil-immersion objective (numerical aperture NA=1.4), a line scan speed of 600 Hz, with image size of 1024×1024 pixels. GFP was excited with an argon-visible light laser tuned to 488 nm, mRFP were excited with a […] tuned to 543 nm GFP and RFP fluorescence emissions were collected using a photomultiplier tube via 514/10 nm and 595/10 nm band selections respectively.

Data set [2] in a line: Stability in biological media: fetal bovine serum. It counts as in vitro ADME. The note with it: 10% fetal bovine serum, 50 μg/ml, 37° C.
The test system of data set [3] is H226 (KRAS wildtype cell line). Put plainly: Proliferation Assay H226. It counts as cell-based. The note with it: Homo sapiens, NCI-H226, n = 1. In short, it runs like this: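 Cells plated 2000 per well, allowed 24 h to attach, then exposed 72 h to agents (0-100 μM for isogenic lines; 0.01 to 50 μM for the RPMI 1640/10% FBS-cultured 30-line NSCLC panel). MTS read at 490 nm after 2 h, normalized to no-cell and no-drug controls; IC50 from curve fitting.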

A further data set deals with T2, rHuman carboxyesterase 2 (Homo sapiens, UniProt O00748).
T2 sequence (O00748 27-559): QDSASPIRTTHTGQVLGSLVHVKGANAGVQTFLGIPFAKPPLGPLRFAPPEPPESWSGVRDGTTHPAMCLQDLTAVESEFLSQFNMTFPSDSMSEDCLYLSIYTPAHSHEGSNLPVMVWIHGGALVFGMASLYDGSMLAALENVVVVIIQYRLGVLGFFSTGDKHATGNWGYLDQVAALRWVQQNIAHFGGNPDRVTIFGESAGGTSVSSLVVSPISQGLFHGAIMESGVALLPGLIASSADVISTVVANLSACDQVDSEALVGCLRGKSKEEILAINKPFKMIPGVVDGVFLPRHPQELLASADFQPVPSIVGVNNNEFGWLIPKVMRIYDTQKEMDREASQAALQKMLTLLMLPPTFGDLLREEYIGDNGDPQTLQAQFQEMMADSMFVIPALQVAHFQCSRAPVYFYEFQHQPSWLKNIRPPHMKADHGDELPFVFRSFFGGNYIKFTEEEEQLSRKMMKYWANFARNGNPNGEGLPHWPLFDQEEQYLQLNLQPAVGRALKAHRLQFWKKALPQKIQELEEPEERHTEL
Put plainly: Stability with carboxyesterase 2. It counts as in vitro ADME. The note with it: rHuman carboxyesterase 2 24 U/ml, pH 7.4, 37° C.

Data set [4] addresses T3, direct binding of CNKSR1 to mut-KRAS (Homo sapiens, UniProt Q969H4).
T3 construct: expressed in transfected cells
T3 sequence (Q969H4 1-720): T1 sequence (Q969H4 1-720)
Put plainly: Fluorescence lifetime imaging microscopy (FLIM). The format is cell-based. The note with it: FIG. 13, FLIM. Here is the method: FLIM experiments were carried out using a Leica TCP SP5 inverted advanced confocal microscope system with internal photomultiplier tube (PMT) detector for TCSPC (time-correlated single-photon counting). The sample was excited with a tunable femtosecond (fs) titanium-sapphire laser with repetition rate of 80 MHz and pulse width less then 80 fs (Spectral Physics, Mai Tai BB). The wavelength used for two-photon excitation was 930 nm and the fluorescence was detected through a 525±25 nm interference filter. Images were obtained with oil-immersion objective (numerical aperture NA=1.4), a line scan speed of 400 Hz, with image size of 512×512 pixels. For FLIM analysis the pixels were reduced to 256×256. FLIM data was collected using Becker & Hickl SPC830 data and image acquisition card for TCSPC.

The IC50 is the concentration that gives 50% inhibition.

With `CCOC(=O)Cc1nn(Cc2nc(-c3ccc(C)cc3)cs2)c(=O)c2ccccc12` [Compound 7], the “membrane colocalisation of CNKSR1 and mutant-KRas at the plasma membrane” value in data set [1] was “blocking”. Also, the “total mutant KRas protein in the cell” value in data set [1] is reported as “lower”. The Half life in data set [2] was determined as 13.2 h; at rHuman carboxyesterase 2, 1.65 h. For the same molecule, the IC50 in data set [3] is more than 100 µM. Also, the “direct binding of CNKSR1 to mut-KRAS in cells” value in data set [4] is “inhibit”.
